The values below come from US20230257385A1, “SALT AND SOLID FORMS OF TABERNANTHALOG” (priority 2021, published 2023).

A short description of series [1]: Heat-up/cool-down crystallisation screen of sorbate salt (Example 10, Experiments 5, 8). It is filed as physicochemical. The settings on record: Experiment 8; repeat of HUCD crystallisations aiming at Pattern #1 (water) and Pattern #6 (heptane/ethyl formate); wet pellet. As for the experimental part:
The relevant solvent (0.225 ml, 3.0 vol) was added to the appropriate vial and the suspensions were stirred and warmed to temperature. If dissolution was not observed, further solvent was added until the solute dissolved, or aliquots of a secondary co-solvent were added to complete dissolution. Once dissolved, the solutions were left to cool down and stand undisturbed under sub-ambient conditions for several days. After crystallisation was judged complete, the products were isolated by centrifugation and the pellets were dried at 40° C. under reduced pressure. Products from the crystallisation (wet and dry) were initially analysed by XRPD (9-minute method), further analyses of certain products were performed by ^1H NMR, DSC and TGA, if the diffraction pattern indicated differences.

Assay in series [2]: as above
It is filed as physicochemical. The settings on record: Experiment 8; repeat of HUCD crystallisations; dried ca. 2 h under N2 flux at ambient temperature.

Series [3] in a line: DVS analyses of the monofumarate salt (Example 5, Experiment Reference 4). As to conditions: mass equilibrated, 0 to 90% to 0% RH, 25° C. It is filed as physicochemical. As for the experimental part: (§1) The moisture sorption properties of the feed API were analyzed by DVS Intrinsic instrument (Surface Measurement System). Approximately 20 to 50 mg of API was weighed onto an aluminum pan and loaded into the instrument equilibrated at 25° C. The sample was equilibrated under a dry atmosphere (0% relative humidity) for 60 minutes, before increasing the humidity from 0% to 30% at 5% step increment and from 30% to 90% at 10% step increment. A desorption cycle was also applied from 90% to 30% (10% step decrement) and from 30% to 0% (5% step decrement). A rate of change in mass per time unit (dm/dt) of 0.002%/min was set as the equilibrium parameter. Kinetic and isotherm graphs were calculated.
as §1, with “feed API (active pharmaceutical ingredient) were analyzed” for “feed API were analyzed”, “step decrement). […] Kinetic and” for “step decrement). A rate of change in mass per time unit (dm/dt) of 0.002%/min was set as the equilibrium parameter. Kinetic and”, “were calculated. […]” for “were calculated.”

The nature of series [4]: Solubility determinations in SIF buffers FaSSIF, FeSSIF, FaSSGF (Example 8, Experiment 5). The settings on record: 37 °C, thermodynamic from solid. In short, it runs like this: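 Suspensions in FaSSIF, FeSSIF or FaSSGF held at 37° C for 24 h, sampled at set time points and centrifuged. Pellets checked by XRPD, wet and dried, for form change.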
Series [5] can be described thus: Equilibrium humidity evaluation 75% RH/40° C., 10 days (Example 8, Experiment 6). It is filed as physicochemical. As to conditions: 75% RH/40° C. In short, it runs like this: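 Tabernanthalog salt powders (100 mg) were spread evenly in open vials and held at 40 °C and 75% RH. Sub-samples taken at 5 and 10 days were analysed by ^1H NMR, HPLC, XRPD, DSC, TGA and PLM for phase change, chemical degradation and residual solvent.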

Series [6] is described as follows: Dynamic vapour sorption (DVS) of selected salts (Example 8). Type of series: physicochemical. As to conditions: 0 to 90 to 0% RH, 25° C., dm/dt 0.002%/min. In short, it runs like this:
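Sorption/desorption isotherms on 20–50 mg sample at 25°C after 60 min at 0% RH: 5% steps to 30%, 10% steps to 90%, then reverse. Equilibrium criterion dm/dt 0.002%/min; kinetic and isotherm curves derived.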

Series [7] can be described thus: Calibration curve of non-ionized Tabernanthalog / HPLC sample diluent selection. It is filed as physicochemical. As to conditions: acetonitrile/water. An excerpt:
Separate portions of Tabernanthalog (native) were weighed out into aluminum boats and were charged to the relevant volumetric flasks. […] Peak areas of the calibrants were plotted against concentration to generate the corresponding calibration curve with slope 27622 and R^2 0.9917 (FIG. 437).
It is noted that tabernanthalog is insoluble in typical HPLC sample diluents, acetonitrile/water. Therefore, DMSO and water were investigated as sample diluents.
Thus, DMSO/water (1/1, v/v) was selected as the appropriate diluent composition to perform the study and generate the calibration curve, for the SIF panel solubility.

Series [8] has as its target 5-HT2A (Homo sapiens, UniProt P28223). The settings on record: reported by Dong et al., Olson et al., Cameron et al.; cited from earlier work.
The conditions of series [9]: reported by Dong et al., Olson et al., Cameron et al.; cited from earlier work.

5-HT2A, sequence (P28223 whole entry): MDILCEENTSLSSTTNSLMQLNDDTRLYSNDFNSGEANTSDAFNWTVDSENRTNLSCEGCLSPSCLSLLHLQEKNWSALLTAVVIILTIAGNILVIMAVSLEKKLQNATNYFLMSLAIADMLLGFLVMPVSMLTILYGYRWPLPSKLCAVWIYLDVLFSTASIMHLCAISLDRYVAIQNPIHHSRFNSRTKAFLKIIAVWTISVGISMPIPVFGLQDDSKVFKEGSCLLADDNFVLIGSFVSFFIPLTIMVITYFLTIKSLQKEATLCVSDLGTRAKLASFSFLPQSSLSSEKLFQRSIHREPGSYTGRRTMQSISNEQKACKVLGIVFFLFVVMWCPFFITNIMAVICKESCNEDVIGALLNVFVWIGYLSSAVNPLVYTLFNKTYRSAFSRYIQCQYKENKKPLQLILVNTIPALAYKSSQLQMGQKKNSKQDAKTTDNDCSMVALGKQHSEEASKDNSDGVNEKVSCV

With `CC=CC=CC(=O)O.COc1ccc2c3c([nH]c2c1)CCN(C)CC3` [Experiment 8-Sample B], the “XRPD (centrifuged, wet)” value in series [1] was “Form A”. Further, the “XRPD (under nitrogen flow)” value in series [2] is reported as “Form A”.

Turning to `COc1ccc2c3c([nH]c2c1)CCN(C)CC3.O=C(O)/C=C/C(=O)O` [8-Methoxy-3-methyl-2,4,5,6-tetrahydro-1H-azepino[4,5-b]indole fumarate salt (polymorph Form A)], the DVS isotherm entry in [3] was “hygroscopic isotherm with negligible hysteresis”. Besides, the solubility at 24 h in series [4] (pH 1.6, fassgf or other biorelevant) is above 30 mg/mL; in series [4] (pH 5, fessif) it was above 30 mg/mL; in [4] (pH 6.5, fassif), above 30 mg/mL. In addition, the “change in chemical purity (trended HPLC)” value in series [5] (after 10 days) was “slight decrease in chemical purity”. Besides, the “water uptake / hydrate formation (TGA, DSC)” value in series [5] (t=5 d and t=10 d) is given as “no significant water uptake”. In series [5] (t=5 days and t=10 days), the “powder diffraction pattern versus input (form stability)” value is “resembled the input phase”. In addition, the DVS sorption/desorption isotherm result in [6] is recorded as “hygroscopic isotherm, with negligible hysteresis”.

`COc1ccc2c3c([nH]c2c1)CCN(C)CC3` [tabernanthalog, 8-methoxy-3-methyl-1,2,3,4,5,6-hexahydroazepino[4,5-b]indole]: the “solubility in typical HPLC sample diluents” value in series [7] is “insoluble”. Moreover, the 5-HT2A activity result in series [8] is recorded as “have 5-HT2A activity”. Moreover, the hallucinogenic effect entry in [9] is on record as “non-hallucinogenic”.
